# Experimental data published in patent US20080057107A1, “COMPOSITIONS FOR VAGINAL TREATMENT” (Kimberly-Clark Worldwide, Inc., priority 2004, published 2008).
# Tests used:
# [1] = tested on: Normal human vaginal epithelial cells; test: Cell proliferation, CellTiter 96 Aqueous One Solution; format: cell-based; details: 10^-5 M, three days after treatment, absorbance at 490 nm, vs control medium, p<0.05
# Protocol: Normal human vaginal epithelial cells from Clonetics (NHVE 5164) were subcultured in basal PrEBM (Clonetics CC 3165) within 96 well plates at 37° C., 5% CO2. Cells were then exposed to medium containing mannose-6-phosphate (Sigma, M3655) at a concentration of 10^−5 M. Control groups received culture medium without mannose-6-phosphate. Cell proliferation was examined three days later and glycogen positive cells were detected five days after mannose-6-phosphate treatment. Cell proliferation was examined by using CellTiter 96 Aqueous One Solution from Promega (#TB245). Twenty μl of the reagent was added to each well. The plates were returned to cell culture incubator for 3 hours. The absorbance in each well was measured at 490 nm with a microtiter reader.
# [2] = tested on: Normal human vaginal epithelial cells; test: Periodic acid Schiff (PAS) assay for glycogen-positive cells; format: cell-based; details: 10^-5 M, five days after treatment, manually counted, vs control medium
# Protocol: Normal human vaginal epithelial cells from Clonetics (NHVE 5164) were subcultured in basal PrEBM (Clonetics CC 3165) within 96 well plates at 37° C., 5% CO2. Cells were then exposed to medium containing mannose-6-phosphate (Sigma, M3655) at a concentration of 10^−5 M. Control groups received culture medium without mannose-6-phosphate. Cell proliferation was examined three days later and glycogen positive cells were detected five days after mannose-6-phosphate treatment.
# A periodic acid Schiff (PAS) assay was used to detect glycogen levels. Before the assay, cells were washed with PBS and fixed with a 10 vol % Formalin/ethanol solution for 1 hour at room temperature, followed by continuous rinsing with deionized (DI) water for 1 minute. A Harleco® PAS Assay Kit (from EM Science 64945/43) was used for glycogen detection. The basic principle is that the hydroxy groups on the glycogen units were first oxidized into aldehyde groups by periodic acid, and the aldehyde groups reacted with Schiff's agent to produce a red colorant. The specific assay operations were all done at room temperature as follows: • 1. Periodic acid reagent was added to the well/chamber and allowed to stand for 10 minutes. • 2. […] The numbers of glycogen-stained positive cells were manually counted under microscope. The data was analyzed by student's t test, and p<0.05 was considered significant. […]
structure (smiles),measurement,setting,value
O=C[C@@H](O)[C@@H](O)[C@H](O)[C@H](O)COP(=O)(O)O [mannose-6-phosphate],vaginal cell proliferation,[1],significantly (p<0.05) increased
same,number of glycogen-positive cells,[2],significantly higher
